Assay results as given in patent publication US10399932B2, “Inhibitors of indoleamine-2,3-dioxygenase for the treatment of cancer” (BRISTOL-MYERS SQUIBB COMPANY, priority 2015, dated 2019).

target: human IDO1 (Homo sapiens, UniProt P14902); assay: Assessment of human IDO-1 inhibitory activity in HEK cells (human IDO1/HEK293 cells, Ehrlich reagent, absorbance at 490 nm); format: cell-based; set-up: expressed in transfected cells; conditions: In Vitro Potency in the HEK Human IDO-1 Cellular Assay
How it was run: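 Stable human IDO1-expressing HEK293 cells treated with compound for 20 h at 37 °C in phenol red-free RPMI/10% FBS. Stopped with 0.2% TCA (final) and heated 30 min at 50 °C; supernatant mixed with Ehrlich reagent, absorbance read at 490 nm. IC50 normalised to DMSO (0%) and 500 nM reference standard (100% inhibition).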

human IDO1, sequence (P14902 whole entry): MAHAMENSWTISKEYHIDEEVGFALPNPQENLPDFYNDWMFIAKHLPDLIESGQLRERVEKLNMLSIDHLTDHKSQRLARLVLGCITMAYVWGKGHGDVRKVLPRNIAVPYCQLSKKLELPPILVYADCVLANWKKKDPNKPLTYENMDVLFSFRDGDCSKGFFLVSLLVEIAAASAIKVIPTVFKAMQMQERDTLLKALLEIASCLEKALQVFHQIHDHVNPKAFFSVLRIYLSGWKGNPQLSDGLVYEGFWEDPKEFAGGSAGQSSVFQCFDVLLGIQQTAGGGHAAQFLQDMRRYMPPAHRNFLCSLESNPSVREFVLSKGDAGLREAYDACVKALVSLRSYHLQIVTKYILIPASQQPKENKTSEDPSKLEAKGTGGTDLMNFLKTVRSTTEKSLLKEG

| SMILES | IC50 |
| --- | --- |
| COCC(CC(=O)O)c1ccc(N(CC2CC2)C2CCOCC2)c(NC(=O)Nc2ccc(C)cc2)c1 (single isomer, unassigned) [Example 677, 3-(4-((Cyclopropylmethyl)(tetrahydro-2H-pyran-4-yl)amino)-3-(3-(p-tolyl)ureido)phenyl)-4-methoxybutanoic acid] | > 50 nM |
| COCC(CC(=O)O)c1cc(F)c(N(CC(C)C)CC(C)C)c(NC(=O)Nc2cc(C)on2)c1 (single isomer, unassigned) [Example 1188, 3-(4-(Diisobutylamino)-3-fluoro-5-(3-(5-methylisoxazol-3-yl)ureido)phenyl)-4-methoxybutanoic acid] | < 50 nM |
| CC(C)CN(c1ccc(C(CC(=O)O)C2CC2)cc1NC(=O)Nc1cncnc1)C1CCOCC1 (single isomer, unassigned) [Example 1207 Enantiomer 2, 3-Cyclopropyl-3-(4-(isobutyl(tetrahydro-2H-pyran-4-yl)amino)-3-(3-(pyrimidin-5-yl)ureido)phenyl)propanoic acid] | > 50 nM |
| COCC(CC(=O)O)c1cc(F)c(N(CC(C)C)C2CCCCC2)c(NC(=O)Nc2ccc(Cl)cc2F)c1 (single isomer, unassigned) [Example 1164, 3-(3-(3-(4-chloro-2-fluorophenyl)ureido)-4-(cyclohexyl(isobutyl)amino)-5-fluorophenyl)-4-methoxybutanoic acid] | < 5 nM |
| CCOc1ccc(NC(=O)Nc2cc([C@@H](CC)CC(=O)O)ccc2N(CC)C2CCOCC2)cc1 (single isomer, unassigned) [Example 491] | < 50 nM |
| CCC(CC(=O)O)c1ccc(N(CCC(C)C)C2CCCCC2)c(NC(=O)Cc2ccc(F)cc2)c1 (racemic) [Example 1089] | > 50 nM |
| CCN(c1ccc(C(CC(=O)O)c2ccccc2)cc1Nc1ccc2nc(C)sc2c1)C1CCOCC1 (single isomer, unassigned) [Example 589, 3-(4-(ethyl(tetrahydro-2H-pyran-4-yl)amino)-3-((2-methylbenzo[d]thiazol-6-yl)amino)phenyl)-3-phenylpropanoic acid] | > 50 nM |
| CCC(CC(=O)O)c1cc(F)c(N(CC(C)C)CC(C)C)c(Nc2ccc(OCC3CC3)cc2)c1 (single isomer, unassigned) [Example 122, 3-(3-((4-(cyclopropylmethoxy)phenyl)amino)-4-(diisobutylamino)-5-fluorophenyl)pentanoic acid] | < 50 nM |
| CC(CC(=O)O)c1ccc(N2C[C@@H](C)O[C@@H](C)C2)c(Nc2ccc(F)cc2)c1 (single isomer, unassigned) [Example 744] | > 50 nM |
| CCC(CC(=O)O)c1ccc(N(CC2CC2)C(C)C)c(Nc2ccc(Cl)cc2)c1 (single isomer, unassigned) [Example 717, 3-(3-((4-chlorophenyl)amino)-4-((cyclopropylmethyl)(isopropyl)amino)phenyl)pentanoic acid] | < 5 nM |
| CCC(CC(=O)O)c1ccc(N2CCC[C@H]2C(C)(C)O)c(NC(=O)Nc2ccc(F)cc2)c1 (single isomer, unassigned) [Example 829] | > 50 nM |
| CCOc1ccc(NC(=O)Nc2cc(C(CC(=O)O)C3CC3)ccc2N(CC(C)C)C2CCOCC2)cc1 (single isomer, unassigned) [Example 1205 Enantiomer 2, 3-Cyclopropyl-3-(3-(3-(4-ethoxyphenyl)ureido)-4-(isobutyl(tetrahydro-2H-pyran-4-yl)amino)phenyl)propanoic acid] | < 50 nM |
| CCC(CC(=O)O)c1cc(NC(=O)Nc2ccc(C)cc2F)c(N(CC(C)C)C2CCCCC2)cc1F (single isomer, unassigned) [Example 1121, 3-(4-(Cyclohexyl(isobutyl)amino)-2-fluoro-5-(3-(2-fluoro-4-methylphenyl)ureido)phenyl)pentanoic acid] | < 5 nM |
| CCOc1ccc(Nc2cc(C(CC)CC(=O)O)cc(F)c2N(CC(C)C)CC(C)C)cc1 (single isomer, unassigned) [Example 113, 3-(4-(diisobutylamino)-3-((4-ethoxyphenyl)amino)-5-fluorophenyl)pentanoic acid] | < 50 nM |
| CC(CC(=O)O)c1ccc(N2C[C@@H](C)O[C@@H](C)C2)c(Nc2ccc(C#N)cc2)c1 (single isomer, unassigned) [Example 743] | > 50 nM |
| CCOc1ccc(NC(=O)Nc2cc(C(COC)CC(=O)O)ccc2N(CC(C)C)C2CCOCC2)cc1 (single isomer, unassigned) [Example 1219, 3-(3-(3-(4-Ethoxyphenyl)ureido)-4-(isobutyl(tetrahydro-2H-pyran-4-yl)amino)phenyl)-4-methoxybutanoic acid] | > 50 nM |
| COCC(CC(=O)O)c1cc(F)c(N(CC(C)C)C2CCCCC2)c(NC(=O)Cc2ccc(Cl)cc2F)c1 (single isomer, unassigned) [Example 1175, 3-(3-(2-(4-chloro-2-fluorophenyl)acetamido)-4-(cyclohexyl(isobutyl)amino)-5-fluorophenyl)-4-methoxybutanoic acid] | < 50 nM |
| CC(CC(=O)O)c1ccc(N2CCC[C@H]2C(C)(C)O)c(Nc2ccc(F)cc2)c1 (single isomer, unassigned) [Example 803] | > 50 nM |

| SMILES | IC50 |
| --- | --- |
| CC(C)CN(CC(C)C)c1c(F)cc(C(CC(=O)O)c2ccccc2)cc1Nc1ccc(Cl)cc1 (single isomer, unassigned) [Example 131, 3-(3-((4-chlorophenyl)amino)-4-(diisobutylamino)-5-fluorophenyl)-3-phenylpropanoic acid] | < 50 nM |
| CCOc1ccc(NC(=O)Nc2cc(C(CC)CC(=O)O)ccc2N2CCC[C@@H]2C(C)(C)O)cc1 (single isomer, unassigned) [Example 778] | > 50 nM |
| COCC(CC(=O)O)c1cc(F)c(N(CC(C)C)C2CCCCC2)c(NC(=O)Nc2ccc(C)cc2)c1 (single isomer, unassigned) [Example 1161, 3-(4-(cyclohexyl(isobutyl)amino)-3-fluoro-5-(3-(p-tolyl)ureido)phenyl)-4-methoxybutanoic acid] | < 5 nM |
| COCC(CC(=O)O)c1cc(F)c(N(CC(C)C)CC(C)C)c(NC(=O)Nc2ccc(OC)cc2F)c1 (single isomer, unassigned) [Example 1189, 3-(4-(Diisobutylamino)-3-fluoro-5-(3-(2-fluoro-4-methoxyphenyl)ureido)phenyl)-4-methoxybutanoic acid] | < 5 nM |
| Cc1ccc(CC(=O)Nc2cc(C(CC(=O)O)C(C)C)ccc2N(C)C(C)(C)C)cc1 (single isomer, unassigned) [Example 1007-2] | > 50 nM |
| CCC(CC(=O)O)c1cc(F)c(N(CC(C)C)CC(C)C)c(NC(=O)Nc2ccc(C)c(F)c2)c1 (single isomer, unassigned) [Example 982-2] | < 5 nM |
| CCOc1ccc(CC(=O)Nc2cc(C(COC)CC(=O)O)cc(F)c2N(CC(C)C)C2CCCCC2)cc1 (single isomer, unassigned) [Example 1173, 3-(4-(cyclohexyl(isobutyl)amino)-3-(2-(4-ethoxyphenyl)acetamido)-5-fluorophenyl)-4-methoxybutanoic acid] | < 50 nM |
| CCC(CC(=O)O)c1cc(F)c(N(CC(C)C)CC(C)C)c(NC(=O)c2ccc(Cl)cc2)c1 (single isomer, unassigned) [Example 128, 3-(3-(4-Chlorobenzamido)-4-(diisobutylamino)-5-fluorophenyl)pentanoic acid] | > 50 nM |
| COCC(CC(=O)O)c1ccc(N(CC(C)C)CC(C)C)c(NC(=O)Nc2cc(C)on2)c1 (single isomer, unassigned) [Example 999-2] | < 50 nM |
| COCC(CC(=O)O)c1ccc(N(CC(C)C)C2CCCCC2)c(NC(=O)Nc2ccc(Cl)cc2F)c1 (single isomer, unassigned) [Example 985-2] | < 5 nM |
| CCOc1ncc(Nc2cc(C(CC)CC(=O)O)ccc2N(CC)C2CCCOC2)cn1 (single isomer, unassigned) [Example 72, 3-(3-((2-ethoxypyrimidin-5-yl)amino)-4-(ethyl(tetrahydro-2H-pyran-3-yl)amino)phenyl)pentanoic acid] | < 5 nM |
| COCC(CC(=O)O)c1ccc(N(CC(C)C)C2CCCCC2)c(NC(=O)Nc2ccc(OC)cc2F)c1 (single isomer, unassigned) [Example 1239, 3-(4-(Cyclohexyl(isobutyl)amino)-3-(3-(2-fluoro-4-methoxyphenyl)ureido)phenyl)-4-methoxybutanoic acid] | < 5 nM |
| CCC(CC(=O)O)c1ccc(N(CC2CC2)C2CCOCC2)c(Nc2cnc(OC)nc2)c1 (single isomer, unassigned) [Example 709, 3-(4-((cyclopropylmethyl)(tetrahydro-2H-pyran-4-yl)amino)-3-((2-methoxypyrimidin-5-yl)amino)phenyl)pentanoic acid] | < 5 nM |
| CCOc1ccc(NC(=O)Nc2cc(C(CC)CC(=O)O)c(F)cc2N(CC(C)C)C2CCCCC2)c(F)c1 (single isomer, unassigned) [Example 1118, 3-(4-(Cyclohexyl(isobutyl)amino)-5-(3-(4-ethoxy-2-fluorophenyl)ureido)-2-fluorophenyl)pentanoic acid] | < 5 nM |
| CCC(CC(=O)O)c1ccc(N(CC(C)C)C2CCCCC2)c(Nc2ccc(Cl)c(OCC3CC3)c2)c1 (single isomer, unassigned) [Example 652, 3-(3-((4-chloro-3-(cyclopropylmethoxy)phenyl)amino)-4-(cyclohexyl(isobutyl)amino)phenyl)pentanoic acid] | < 50 nM |
| COCC(CC(=O)O)c1ccc(N(CC(C)C)C2CCCCC2)c(NC(=O)Nc2ccccc2F)c1 (single isomer, unassigned) [1125 E1] | < 5 nM |
| COCC(CC(=O)O)c1ccc(N(CC(C)C)C2CCOCC2)c(NC(=O)Nc2ccc(OC(F)(F)F)cc2)c1 (single isomer, unassigned) [Example 1218, 3-(4-(Isobutyl(tetrahydro-2H-pyran-4-yl)amino)-3-(3-(4-(trifluoromethoxy)phenyl)ureido)phenyl)-4-methoxybutanoic acid] | > 50 nM |
